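Five compound concentrations were applied to cells in 96-well plates for 48 hours; endpoints were derived by simple linear interpolation of the resulting dose-response curve. GI50 marks 50% less growth.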 Calls of active or inactive are those of the source. Cut-off read from the data, not from the text of the source: active = GI50 up to about 1.1 µM and inactive = higher.
Key:
Experiment in all cases: NCI anticancer screen, dose series, 48 h
[1] = system: SF-268
[2] = system: SK-OV-3
[3] = system: NCI/ADR-RES
[4] = system: BT-549
[5] = system: MOLT-4
[6] = system: RXF 393
[7] = system: HCT-15
[8] = system: TK-10
[9] = system: SR
[10] = system: U-251
[11] = system: UACC-62
[12] = system: PC-3
[13] = system: M14
[14] = system: K562
[15] = system: MDA-N
[16] = system: CAKI-1
[17] = system: UACC-257
[18] = system: SNB-75
[19] = system: LOX IMVI
[20] = system: 786-0
[21] = system: OVCAR-5
[22] = system: OVCAR-8
[23] = system: EKVX
[24] = system: COLO 205
[25] = system: NCI-H226
[26] = system: NCI-H23
[27] = system: HT-29
[28] = system: SW-620
[29] = system: CCRF-CEM
[30] = system: Malme-3M
[31] = system: KM12
[32] = system: UO-31
[33] = system: NCI-H522
[34] = system: MDA-MB-231
[35] = system: Hs-578T
[36] = system: OVCAR-3
[37] = system: SK-MEL-5
[38] = system: RPMI-8226
[39] = system: HCT-116
[40] = system: HCC 2998
[41] = system: OVCAR-4
[42] = system: A498
[43] = system: SF-539
[44] = system: HL-60
[45] = system: T47D
[46] = system: A549
[47] = system: NCI-H460
[48] = system: SK-MEL-28
[49] = system: SN12C
[50] = system: MDA-MB-435
[51] = system: MCF7
[52] = system: SNB-19
[53] = system: DU-145
[54] = system: SK-MEL-2
[55] = system: IGROV-1
[56] = system: HOP-62
[57] = system: SF-295
[58] = system: HOP-92
[59] = system: ACHN

For `O=c1[nH][nH]c(=O)n1Cc1cccc(Cn2c(=O)[nH][nH]c2=O)c1`, the GI50 [1] was > 100 µM (inactive), the GI50 [2] was > 100 µM (inactive) and the GI50 [3] was > 100 µM (inactive). For the same compound, the GI50 [4] was > 100 µM (inactive), the GI50 [5] was > 100 µM (inactive) and the GI50 [6] was > 100 µM (inactive). For the same compound, the GI50 [7] was greater than 100 µM, the GI50 [8] was > 100 µM (inactive) and the GI50 [9] was > 100 µM (inactive). The GI50 [10] was > 100 µM (inactive), the GI50 [11] was > 100 µM (inactive) and the GI50 [12] was > 100 µM (inactive). For the same compound, the GI50 [13] was > 100 µM (inactive), the GI50 [14] was > 100 µM (inactive) and the GI50 [15] was > 100 µM (inactive). The GI50 [16] was > 100 µM (inactive), the GI50 [17] was > 100 µM (inactive) and the GI50 [18] was > 100 µM (inactive). The GI50 [19] was > 100 µM (inactive), the GI50 [20] was > 100 µM (inactive) and the GI50 [21] was > 100 µM (inactive). For the same compound, the GI50 [22] was > 100 µM (inactive), the GI50 [23] was > 100 µM (inactive) and the GI50 [24] was > 100 µM (inactive). The GI50 [25] was > 100 µM (inactive), the GI50 [26] was > 100 µM (inactive) and the GI50 [27] was > 100 µM (inactive). For the same compound, the GI50 [28] was > 100 µM (inactive), the GI50 [29] was > 100 µM (inactive) and the GI50 [30] was > 100 µM (inactive). The GI50 [31] was > 100 µM (inactive), the GI50 [32] was > 100 µM (inactive) and the GI50 [33] was > 100 µM (inactive). The GI50 [34] was > 100 µM (inactive), the GI50 [35] was > 100 µM (inactive) and the GI50 [36] was > 100 µM (inactive). For the same compound, the GI50 [37] was > 100 µM (inactive), the GI50 [38] was > 100 µM (inactive) and the GI50 [39] was > 100 µM (inactive). The GI50 [40] was > 100 µM (inactive), the GI50 [41] was > 100 µM (inactive) and the GI50 [42] was > 100 µM (inactive). The GI50 [43] was > 100 µM (inactive), the GI50 [44] was > 100 µM (inactive) and the GI50 [45] was > 100 µM (inactive). For the same compound, the GI50 [46] was > 100 µM (inactive), the GI50 [47] was > 100 µM (inactive) and the GI50 [48] was > 100 µM (inactive). The GI50 [49] was > 100 µM (inactive), the GI50 [50] was > 100 µM (inactive) and the GI50 [51] was > 100 µM (inactive). For the same compound, the GI50 [52] was > 100 µM (inactive), the GI50 [53] was > 100 µM (inactive) and the GI50 [54] was > 100 µM (inactive).
`Cc1ccc(S(=O)(=O)NN=C2C(C)CC(C(C)(C)C)CC2C)cc1` (centres undefined) was tested, and the GI50 [2] was 24.4 µM (inactive), the GI50 [3] was 31.6 µM (inactive) and the GI50 [4] was 17.9 µM (inactive). For the same compound, the GI50 [5] was 20.6 µM (inactive), the GI50 [7] was 18.2 µM and the GI50 [8] was 26.4 µM (inactive). For the same compound, the GI50 [9] was 26.8 µM (inactive), the GI50 [10] was 17.7 µM (inactive) and the GI50 [11] was 32.3 µM (inactive). The GI50 [12] was 18.8 µM (inactive), the GI50 [13] was 13.5 µM (inactive) and the GI50 [14] was 21 µM (inactive). The GI50 [15] was 19.3 µM (inactive), the GI50 [16] was 16.9 µM (inactive) and the GI50 [17] was 19.1 µM (inactive). For the same compound, the GI50 [18] was 20.4 µM (inactive), the GI50 [19] was 17.9 µM (inactive) and the GI50 [55] was 38.9 µM (inactive). For the same compound, the GI50 [20] was 17.4 µM (inactive), the GI50 [21] was 17.5 µM (inactive) and the GI50 [22] was 24.1 µM (inactive). For the same compound, the GI50 [24] was 18.4 µM (inactive), the GI50 [25] was 19 µM (inactive) and the GI50 [26] was 24.4 µM (inactive). The GI50 [56] was 16.4 µM (inactive), the GI50 [27] was 18.5 µM (inactive) and the GI50 [28] was 20 µM (inactive). For the same compound, the GI50 [29] was 20 µM (inactive), the GI50 [30] was 17.8 µM (inactive) and the GI50 [31] was 17.6 µM (inactive). The GI50 [57] was 18.1 µM (inactive), the GI50 [32] was 21 µM (inactive) and the GI50 [33] was 18.6 µM (inactive). For the same compound, the GI50 [34] was 28.6 µM (inactive), the GI50 [35] was 37.2 µM (inactive) and the GI50 [36] was 16.6 µM (inactive). The GI50 [58] was 15.5 µM (inactive), the GI50 [37] was 17.3 µM (inactive) and the GI50 [38] was 23.2 µM (inactive). For the same compound, the GI50 [39] was 17.5 µM (inactive), the GI50 [40] was 17.7 µM (inactive) and the GI50 [41] was 14.9 µM (inactive). The GI50 [42] was 17.4 µM (inactive), the GI50 [43] was 95.1 µM (inactive) and the GI50 [44] was 25.9 µM (inactive). The GI50 [45] was 21.7 µM (inactive), the GI50 [46] was 17.9 µM (inactive) and the GI50 [47] was 18.8 µM (inactive). For the same compound, the GI50 [48] was 20 µM (inactive), the GI50 [49] was 18.4 µM (inactive) and the GI50 [50] was 20 µM (inactive). The GI50 [51] was 21.1 µM (inactive), the GI50 [52] was 26.3 µM (inactive) and the GI50 [53] was 19.7 µM (inactive). For the same compound, the GI50 [54] was 16.2 µM (inactive).
In the case of `COc1ccc(C(=O)/C=C/c2ccc(OCC#N)cc2)cc1`, the GI50 [1] is reported as 34.1 µM (inactive), the GI50 [2] is reported as 43.3 µM (inactive) and the GI50 [3] is reported as 20.9 µM (inactive). For the same compound, the GI50 [4] was 17.5 µM (inactive), the GI50 [5] was 23.3 µM (inactive) and the GI50 [6] was 16.3 µM (inactive). The GI50 [7] was 23.3 µM, the GI50 [8] was 38.3 µM (inactive) and the GI50 [9] was 22.7 µM (inactive). For the same compound, the GI50 [10] was 17.4 µM (inactive), the GI50 [11] was > 10 µM (inactive) and the GI50 [12] was 36.6 µM (inactive). The GI50 [13] was 20 µM (inactive), the GI50 [14] was 28.2 µM (inactive) and the GI50 [15] was > 10 µM (inactive). For the same compound, the GI50 [16] was 19.5 µM (inactive), the GI50 [17] was 38.9 µM (inactive) and the GI50 [18] was 77.1 µM (inactive). For the same compound, the GI50 [55] was > 10 µM (inactive), the GI50 [59] was 36.1 µM (inactive) and the GI50 [20] was 42.2 µM (inactive). The GI50 [21] was > 100 µM (inactive), the GI50 [22] was 34.5 µM (inactive) and the GI50 [23] was 74.5 µM (inactive). The GI50 [24] was 21.7 µM (inactive), the GI50 [25] was 24.7 µM (inactive) and the GI50 [26] was 21.3 µM (inactive). For the same compound, the GI50 [56] was 53.1 µM (inactive), the GI50 [27] was 33.3 µM (inactive) and the GI50 [28] was 17.3 µM (inactive). For the same compound, the GI50 [29] was 23.2 µM (inactive), the GI50 [30] was 20.5 µM (inactive) and the GI50 [31] was 17.5 µM (inactive). The GI50 [57] was 41 µM (inactive), the GI50 [32] was 16.6 µM (inactive) and the GI50 [33] was 18.1 µM (inactive). For the same compound, the GI50 [34] was 23.4 µM (inactive), the GI50 [35] was 27.7 µM (inactive) and the GI50 [36] was 30.8 µM (inactive). For the same compound, the GI50 [58] was 29 µM (inactive), the GI50 [37] was 15.1 µM (inactive) and the GI50 [39] was 12.2 µM (inactive). For the same compound, the GI50 [40] was 17.3 µM (inactive), the GI50 [41] was 32.7 µM (inactive) and the GI50 [42] was 30.6 µM (inactive). For the same compound, the GI50 [43] was 20.4 µM (inactive), the GI50 [45] was 14.9 µM (inactive) and the GI50 [46] was 28.5 µM (inactive). The GI50 [47] was 27.3 µM (inactive), the GI50 [48] was 17.1 µM (inactive) and the GI50 [49] was 19.9 µM (inactive). For the same compound, the GI50 [50] was 24.7 µM (inactive), the GI50 [51] was 15.8 µM (inactive) and the GI50 [52] was 26.2 µM (inactive). For the same compound, the GI50 [53] was 30 µM (inactive).

Source: ChEMBL document CHEMBL1201862, “PubChem BioAssay data set” (2004)
